Laboratory results as given in patent US10894775B2, “Piperidine derivatives as liver X receptor beta agonists, compositions, and their use” (Merck Sharp & Dohme Corp., priority 2016, dated 2021).
Where two headings read alike, the source gives them in different places.

Columns and labels:
[1] = target: T1, glutathione-S-transferase (GST) tagged LXRbeta LBD (ligand binding domain) (Homo sapiens, UniProt P55055); test: LanthaScreen TR-FRET Liver X Receptor Coactivator Assay, LXR beta; assay type: biochemical; conditions: for Emax: read-out: LXR beta actiivty at max dose (%); for EC50: potency (Inflection Point) of compound-induced co-activator recruitment, TR-FRET
T1 construct: purchased Invitrogen pv4658.pps
T1 sequence (P55055 222-460 limits assumed): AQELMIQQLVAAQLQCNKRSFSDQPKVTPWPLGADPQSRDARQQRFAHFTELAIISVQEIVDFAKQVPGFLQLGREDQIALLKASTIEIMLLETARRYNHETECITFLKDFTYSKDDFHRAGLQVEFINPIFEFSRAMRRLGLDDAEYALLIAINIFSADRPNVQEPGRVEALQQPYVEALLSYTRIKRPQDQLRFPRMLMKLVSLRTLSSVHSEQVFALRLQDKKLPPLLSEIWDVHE
Procedure, shortened: (§1)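 Compound + LBD (alpha or beta); add fluorescein coactivator peptide/Tb anti-GST Ab mix; incubate RT; read TR-FRET.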

[2] = target: T2, glutathione-S-transferase (GST) tagged LXRalpha LBD (ligand binding domain) (Homo sapiens, UniProt Q13133); test: LanthaScreen TR-FRET Liver X Receptor Coactivator Assay, LXR alpha; assay type: biochemical; conditions: for Emax: read-out: LXR alpha actiivty at max dose (%); for EC50 / LXR alpha IP (nM): potency (Inflection Point) of compound-induced co-activator recruitment, TR-FRET; for EC50: read-out: LXR alpha IP
T2 construct: purchased Invitrogen pv4655
T2 sequence (Q13133 209-447 limits assumed): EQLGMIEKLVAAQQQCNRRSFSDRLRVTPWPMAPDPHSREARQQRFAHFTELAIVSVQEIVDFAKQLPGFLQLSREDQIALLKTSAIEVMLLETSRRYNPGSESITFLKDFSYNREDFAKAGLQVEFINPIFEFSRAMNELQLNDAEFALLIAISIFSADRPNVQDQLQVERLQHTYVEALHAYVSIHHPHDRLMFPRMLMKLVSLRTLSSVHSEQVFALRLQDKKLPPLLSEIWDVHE
Procedure, shortened: as §1

[3] = efficacy (Emax) in relation to reference dual agonist T0901317

Row | Emax [1, 3] [%] | EC50 ([1]; read-out: LXR beta IP) [nM] | Compound | Emax [2, 3] [%] | EC50 [2] [nM] | EC50 ([1]; LXR beta IP (nM)) [nM] | Emax [1] [%] | LXR alpha IP (nM) [2] | Emax [2] [%]
1 | 108 | 56 | CN(C)C(=O)c1ccc(CCCC2CC3(CCN(C(=O)C(C)(C)c4ccccc4)CC3)C2)cc1Cl [Example 16-3, 2-chloro-N,N-dimethyl-4-(3-(7-(2-methyl-2-phenylpropanoyl)-7-azaspiro[3.5]nonan-2-yl)propyl)benzamide] | 50 | 423 | – | – | – | –
2 | – | – | CN(C)C(=O)c1ccc(S(=O)(=O)C2CCC3(CC2)CCN(C(=O)C(O)(c2cc(Cl)cc(Cl)c2)C(F)(F)F)CC3)cc1Cl (single isomer, unassigned) [Example 21-1, 2-chloro-4-(3-((R or S)-2-(3,5-dichlorophenyl)-3,3,3-trifluoro-2-hydroxypropanoyl)-3-azaspiro[5.5]undecan-9-ylsulfonyl)-N,N-dimethylbenzamide] | – | – | 1460 | 50 | No IP | 0
3 | – | – | CC(CC1CC12CCN(C(=O)C1(c3ccccc3)CCC1)CC2)Nc1ccc(C(=O)N(C)C)c(Cl)c1 (single isomer, unassigned) [Example 5-1, 2-chloro-N,N-dimethyl-4-(1-((S or R)-6-(1-phenylcyclobutanecarbonyl)-6-azaspiro[2.5]octan-1-yl)propan-2-ylamino)benzamide] | 56 | 220 | 5 | 41 | – | –
4 | – | – | CN(C)C(=O)c1ccc(N(C)CCCC2CCN(C(=O)C(O)(c3ccccc3)C(F)(F)F)CC2)cc1Cl (single isomer, unassigned) [Example 3-1, (S or R)-2-chloro-N,N-dimethyl-4-(methyl(3-(1-(3,3,3-trifluoro-2-hydroxy-2-phenylpropanoyl)piperidin-4-yl)propyl)amino)benzamide] | 16 | 1150 | 47 | 109 | – | –
5 | 74 | 38 | CN(C)C(=O)c1ccc(SC2CCC3(CC2)CCN(C(=O)C(O)(c2cc(Cl)cc(Cl)c2)C(F)(F)F)CC3)cc1Cl (single isomer, unassigned) [Example 19-2, 2-chloro-4-(3-((R or S)-2-(3,5-dichlorophenyl)-3,3,3-trifluoro-2-hydroxypropanoyl)-3-azaspiro[5.5]undecan-9-ylthio)-N,N-dimethylbenzamide] | 8 | – | – | – | No IP | –
